# The supplement of paper PMC10307832
# Assays:
# Assay in all cases: relative viability (nuclei count vs DMSO), 5 days (fraction); higher = more cells survive
# [1] = compound: C=CCc1cccc(/C=N/NC(=O)CN2CCN(Cc3ccccc3)CC2)c1O [PAC-1] + CC(C)C[C@H](NC(=O)[C@H](Cc1ccccc1)NC(=O)c1cnccn1)B(O)O [Bortezomib] (partner 0.002 µM)
# Procedure, shortened: (§1)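 Relative viability equals treated-well nuclei counts divided by vehicle-well nuclei counts. Counts came from 4× images of lung cancer cell lines grown in 1536-well plates for 5 days after pin-tool dosing on the day after seeding. Dosing used one drug alone or a fixed anchor-drug dose plus five library-drug doses (not always all listed) in √10 steps, and values are medians of duplicate plates.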
# [2] = compound: C=CC(=O)Nc1cc(-n2c(=O)ccc3cnc4ccc(-c5ccc(NS(C)(=O)=O)cc5)cc4c32)ccc1C [BMX-IN-1] + CC(=O)Nc1cccc(-n2c(=O)n(C3CC3)c(=O)c3c(Nc4ccc(I)cc4F)n(C)c(=O)c(C)c32)c1 [Trametinib] (partner 0.02 µM)
# Procedure, shortened: as §1
# [3] = compound: C=CC(=O)N1CCC[C@@H](n2nc(-c3ccc(Oc4ccccc4)cc3)c3c(N)ncnc32)C1 [Ibrutinib] + CC(=O)Nc1cccc(-n2c(=O)n(C3CC3)c(=O)c3c(Nc4ccc(I)cc4F)n(C)c(=O)c(C)c32)c1 [Trametinib] (partner 0.02 µM)
# Procedure, shortened: as §1
# [4] = compound: C=CCc1cccc(/C=N/NC(=O)CN2CCN(Cc3ccccc3)CC2)c1O [PAC-1] + NC(=O)Nc1cc(-c2cccc(F)c2)sc1C(=O)N[C@H]1CCCNC1 [AZD7762] (partner 0.2 µM)
# Procedure, shortened: as §1
Cell Line,relative viability ([1]; first compound 0.02 µM),relative viability ([1]; first compound 0.06325 µM),relative viability ([1]; first compound 0.2 µM),relative viability ([1]; first compound 2 µM),relative viability ([2]; first compound 0.02 µM),relative viability ([2]; first compound 0.2 µM),relative viability ([2]; first compound 0.6325 µM),relative viability ([2]; first compound 2 µM),relative viability ([3]; first compound 0.005 µM),relative viability ([3]; first compound 0.01581 µM),relative viability ([3]; first compound 0.1581 µM),relative viability ([3]; first compound 0.5 µM),relative viability ([4]; first compound 0.02 µM),relative viability ([4]; first compound 0.06325 µM),relative viability ([4]; first compound 0.2 µM),relative viability ([4]; first compound 2 µM),relative viability ([3]; first compound 0.05 µM)
LC-2-ad,0.981,0.971,0.999,0.957,1.02,0.945,0.929,0.94,0.914,0.907,0.929,0.863,0.76,0.868,0.859,0.902,–
LCLC-97TM1,0.437,0.901,0.668,0.794,0.213,0.27,0.204,0.176,0.192,0.172,0.192,0.155,0.211,0.267,0.23,0.345,0.202
LCLC-103H,1.17,1.1,1.1,1.18,0.753,0.758,0.736,0.683,0.677,0.645,0.739,0.605,0.833,0.764,0.713,0.757,0.716
LK-2,–,–,–,–,0.943,1.02,0.793,0.847,0.931,0.7,0.702,0.668,0.488,0.315,0.327,0.416,0.816
NCI-H358,–,–,–,–,0.119,0.124,0.127,0.123,0.102,0.194,0.138,0.116,0.51,0.507,0.55,0.402,–
NCI-H520,0.716,0.624,0.607,0.421,0.892,0.721,0.741,0.733,0.486,0.651,0.794,0.621,–,–,–,–,0.653
NCI-H522,–,–,–,–,0.687,0.805,0.728,0.744,0.757,0.714,0.71,0.57,0.886,0.69,0.799,0.891,0.661
NCI-H661,0.782,0.816,0.782,0.91,0.634,0.597,0.642,0.535,0.509,0.478,0.532,0.433,–,–,–,–,0.436
NCI-H1299,1.02,0.99,0.975,0.993,–,–,–,–,–,–,–,–,–,–,–,–,–
NCI-H1395,–,–,–,–,1.19,1.12,0.958,0.966,0.912,1.13,1.04,1.01,0.427,0.415,0.352,0.381,1.16
NCI-H1563,0.854,0.833,0.844,0.916,–,–,–,–,–,–,–,–,–,–,–,–,–
NCI-H1648,–,–,–,–,0.435,0.585,0.469,0.495,0.565,0.433,0.418,0.257,0.604,0.898,0.73,0.66,0.316
NCI-H1650,0.198,0.18,0.183,0.229,0.576,0.539,0.682,0.611,0.881,0.535,0.527,0.477,–,–,–,–,0.46
NCI-H1703,0.29,0.268,0.4,0.353,–,–,–,–,–,–,–,–,0.148,0.128,0.143,0.124,–
NCI-H1793,–,–,–,–,0.544,0.454,0.505,0.454,0.485,0.423,0.419,0.401,0.501,0.587,0.547,0.568,0.436
NCI-H1944,–,–,–,–,0.395,0.416,0.419,0.392,0.423,0.369,0.363,0.374,0.428,0.542,0.502,0.516,0.395
NCI-H2009,1.01,0.994,0.897,0.956,0.254,0.251,0.239,0.29,0.208,0.252,0.306,0.234,–,–,–,–,0.253
NCI-H2023,1.2,1.04,0.87,1.02,0.586,0.564,0.623,0.539,0.448,0.455,0.485,0.462,–,–,–,–,0.491
NCI-H2170,–,–,–,–,0.951,1.02,1.09,0.906,0.806,0.744,0.955,0.184,0.874,0.856,0.928,0.846,0.637
NCI-H2228,0.897,1.26,1.03,1.51,0.41,0.596,0.481,0.488,0.379,0.488,0.55,0.298,–,–,–,–,0.412
NCI-H2342,–,–,–,–,0.834,0.768,0.85,0.791,0.801,0.873,0.773,0.676,0.56,0.383,0.395,0.666,0.659
SK-LU-1,0.8,1.3,1.21,1.22,0.381,0.522,0.481,0.403,0.393,0.501,0.536,0.454,–,–,–,–,0.472
SW 900,–,–,–,–,1.12,0.831,0.816,0.807,0.86,0.654,0.901,0.603,–,0.744,0.637,0.678,0.803
SW 1573,0.947,1.08,1.01,1.13,0.657,0.719,0.624,0.507,–,0.462,0.547,0.661,–,–,–,–,0.618
UMC-11,0.693,0.55,0.605,0.782,0.831,0.727,0.763,0.738,0.445,0.698,0.667,0.516,–,–,–,–,0.772
